Laboratory results as given in article PMC11993615, “Design, synthesis and optimization of TarO inhibitors as multifunctional antibiotics against Methicillin-resistant Staphylococcus aureus” (npj Antimicrobials and Resistance, 2025).
In brackets after ≈: the same amount, converted by molar mass.

What was measured:
TarO = TarO (Staphylococcus aureus, UniProt Q2G060); type: cell-based; settings: for IC50: relative inhibition rate against the wild-type strain, OD600 at 20 h, n.a. = IC50 cannot be calculated within the test range
[1] = Solubility of compounds in water (HPLC); type: physicochemical; settings: pure water
Method: Weigh the sample in a 10 mL volumetric flask, dissolve in methanol up to the mark to obtain a reference solution of known concentration. Inject 5 μL into the HPLC, detect peak area at 254 nm wavelength. Prepare supersaturated aqueous solution of the sample, filter and inject 5 μL into the HPLC, detect peak area at 254 nm wavelength. The solubility of the compound in water […] is calculated according to the following formula: CS = CA × AB/AA (CA represents the concentration of the reference solution, AA represents the peak area of the reference solution, and AB represents the saturated peak area of the sample).

[2] = Cytotoxicity assay (Sulforhodamine B); type: cell-based; settings: human
Method: The cytotoxicity was detected by Sulforhodamine B method. The human pancreatic cancer cell line Capan-1, human colon cancer cell line HCT-116 and human lung adenocarcinoma cell line NCI-H1373 were purchased from American Type Culture Collection (ATCC; Manassas, VA) and inoculated into 96-well plates in triplicate. The cells were treated with different concentrations of compounds in humidified incubator containing 5% CO2 for 72 h when they reached 70%-80% confluence. Vincristine was added as a positive control. Then, SRB staining agent was added and microplate analyzer was used to read the absorbance at 450 nm wavelength. The cytotoxicity of each compound is expressed as the concentration of the compound that reduces cell viability to 50% (IC50). The optical density (OD) at a wavelength of 450 nm was measured using an SpectraMax 190 Microplate Reader (Molecular Devices; USA). The IC50 value was calculated by the Logit method using Graphpad Prism 9.1.

USA300 LAC [3] = experiment: Checkerboard MIC assay with oxacillin; type: cell-based, Staphylococcus aureus; settings: USA300 LAC/oxacillin; for Minimum sensitization concentration: test range 0.03–32 μg/mL
Method: (§1) In the checkerboard assay, concentrations of antibiotics, oxacillin and imipenem, and TarO inhibitors were simultaneously varied across columns and the rows, respectively. […] The range of each compound chosen for the checkerboard assay was according to their MIC value. […] For each clear well observed on the checkerboard MIC plate, the fractional inhibitory concentration index (FICI) was calculated as follows: FICI = FIC (inhibitor) + FIC (antibiotic) = MIC inhibitor in combination/ MIC inhibitor alone + MIC antibiotic in combination/MIC antibiotic alone. FIC = Fractional Inhibitory Concentration. A FICI value of < 0.5 indicates synergy, a value between 0.5 and 2 indicates additivity or indifference, and a value > 2 indicates antagonism.

USA400 MW2 [4] = experiment: Checkerboard MIC assay with oxacillin; type: cell-based, Staphylococcus aureus; settings: for Sensitization fold / FICI / Maximum sensitization concentration / Minimum sensitization concentration: USA400 MW2/oxacillin; for Maximum sensitization concentration / Minimum sensitization concentration: test range 0.03–32 μg/mL; for MIC of β-lactam, combined: USA400 MW2
Method: as §1

HS663 [5] = experiment: Checkerboard MIC assay with imipenem; type: cell-based, Staphylococcus aureus; settings: for FICI / Sensitization fold / Maximum sensitization concentration / Minimum sensitization concentration: HS663/imipenem; for Maximum sensitization concentration / Minimum sensitization concentration: test range 0.03–32 μg/mL; for MIC of β-lactam, combined: HS663
Method: as §1

[6] = tested on: TntarO::vraXpro-lux (S.aureus JE2 tarO mutant); experiment: vraXpro-lux induction and growth of tarO mutant (target verification); type: cell-based, Staphylococcus aureus; settings: different concentrations
Method: Second, the vraXpro-lux induction and growth inhibition experiment were conducted using a tarO mutant, as we assumed that a compound with other targets may still change the growth characteristic and the vraXpro-lux expression pattern of the mutant, whereas a TarO inhibitor would not, as its target is absent in the mutant.
Generally, JE2::vraXpro-lux and its isogenic ^TntarO::vraXpro-lux reporter strains were used for preliminary screening and cellular-based target verification. JE2::vraXpro-lux was obtained by transduction of the vraXpro-lux fusions from RN4220 strain to JE2, a plasmid-cured derivative of the community-associated MRSA strain USA300 LAC. ^TntarO::vraXpro-lux was further obtained by transposon insertion mutation of the tarO gene using a mariner-based transposon in JE2 reporter strain[41]. […] Then, 200 μL aliquot of the samples were distributed to a 96-well black-wall clear-bottom plate (Costar, Corning Incorporated), and 45 μL saxoline was added to each well to prevent the evaporation of the medium. vraXpro-lux expression level and the growth curve were measured using a Cytation 1 Multi-Mode Microplate Reader (Biotek) at different time points as indicated.

[7] = tested on: S.aureus USA300 LAC biofilm; experiment: Static biofilm inhibition assay (crystal violet); type: cell-based, Staphylococcus aureus; settings: USA300 LAC
[8] = Preliminary liver microsomal stability testing; type: in vitro ADME, Mouse
Method: 6. Supplementary Ta b l e 3: Preliminary liver microsomal stability testing of Ta r O
Compounds Species T1/2 Clint In Vitro MF […]
a MF: metabolic bioavailability.
Microsomes in 0.1 M TRIS buffer pH 7.4 (final concentration 0.33 mg/mL), co- factor MgCl2 (final concentration 5 mM) and tested compound (final concentration 0.1 μM, co-solvent 0.01% DMSO and 0.005% Bovin serum albumin BSA) were incubated at 37°C for 10 min. The reaction was started by the addition of NADPH (final concentration 1 mM). Aliquots were sampled at 0, 5, 15, 30 and 60 min respectively and methanol (cold in wet ice) was added to terminate the reaction.
After centrifugation (4000rpm,5 min), samples were then analyzed by LC- MS/MS.

USA300 LAC [9] = experiment: MIC determination, broth microdilution; settings: Staphylococcus aureus
USA400 MW2 [10] = experiment: MIC determination, broth microdilution; settings: Staphylococcus aureus
HS663 [11] = experiment: MIC determination, broth microdilution
MRSA HS663 strain = experiment: Galleria mellonella larva infection assay; settings: for survival time of infected larvae: HS663 1.5 × 10^6 CFU
Method: Galleria mellonella infection experiment was performed according to previous methods[24]. Generally, HS663 was grown overnight in TSB (Tryptone Soya Broth) at 37 °C with shaking at 250 rpm. Then cultures were diluted 1:100 into 10 ml fresh TSB, and were further grown for 3 h. The bacterial cells were harvested by centrifugation at 5700 g for 5 min, washed twice with sterilized PBS, and suspended with PBS. Galleria mellonella larvae (Tianjin HuiYuDe Biotechnological Co., Ltd.) about 300 mg was selected to infect. […] After infection for 1 h, the larvae were administrated with compounds or solvent only. Then the Galleria mellonella larvae was cultivated at 37 °C and survival rates were recorded every 12 h for 5 days to analyze the mortality data.

[12] = tested on: S.aureus USA300 LAC wild-type; experiment: Antagonistic (chemical suppression) test of 18a against Targocil, checkerboard
[13] = tested on: ΔtarO strain of USA300 LAC; experiment: Chemical suppression test, Targocil on tarO null mutant control; settings: Targocil 2–64 μg/mL
[14] = at maximum sensitization concentration
[15] = at minimum sensitization concentration
[16] = oxacillin with TarO inhibitor at maximum sensitization concentration
[17] = oxacillin with TarO inhibitor at minimum sensitization concentration
[18] = imipenem with TarO inhibitor at maximum sensitization concentration
[19] = imipenem with TarO inhibitor at minimum sensitization concentration

SMILES | IC50 (TarO) [µM] | FICI (USA300 LAC [3]; [14]) | Sensitization fold (USA300 LAC [3]; [14]) | FICI (USA300 LAC [3]; [15]) | Sensitization fold (USA300 LAC [3]; [15]) | Minimum sensitization concentration (USA300 LAC [3]) [µg/mL] | Sensitization fold (USA400 MW2 [4]; [14]) | FICI (USA400 MW2 [4]; [15]) | Sensitization fold (USA400 MW2 [4]; [15]) | Maximum sensitization concentration (USA400 MW2 [4]) [µg/mL] | Minimum sensitization concentration (USA400 MW2 [4]) [µg/mL] | MIC of β-lactam, combined (USA400 MW2 [4]; [16]) [µg/mL] | MIC of β-lactam, combined (USA400 MW2 [4]; [17]) [µg/mL] | FICI (HS663 [5]; [14]) | Sensitization fold (HS663 [5]; [14]) | FICI (HS663 [5]; [15]) | Sensitization fold (HS663 [5]; [15]) | Maximum sensitization concentration (HS663 [5]) [µg/mL] | Minimum sensitization concentration (HS663 [5]) [µg/mL] | MIC of β-lactam, combined (HS663 [5]; [18]) [µg/mL] | also measured
C[C@H]1[C@@H](c2cc(C(F)(F)F)cc(C(F)(F)F)c2)OC(=O)N1C(=O)CCn1ccc(=O)c2cccnc21 [Compound 18a] | 3.66 | <0.13 | 256 | <0.13 | 8 | 0.03 | 64 | <0.26 | 4 | 32 | 0.03 | 0.25 | 4 | <0.15 | 8 | <0.51 | 2 | 4 | 0.03 | 8 | solubility [1]: 20 µg/mL (≈ 39 µM); IC50 at 72 h ([2]; Capan-1, 72 h): > 20 µM; IC50 at 72 h ([2]; HCT-116, 72 h): > 20 µM; IC50 at 72 h ([2]; NCI-H1373, 72 h): > 20 µM; MIC of β-lactam, combined (HS663 [5]; [19]): 32 µg/mL; vraXpro-lux expression pattern and growth characteristics of the tarO mutant [6]: neither Tarocin A nor 18a further changed the vraXpro-lux expression pattern as well as the growth characteristics of the mutant; concentration (as low as) significantly reducing biofilm formation ([7]; 24 h static culture): 8 µg/mL; Clint In Vitro ([8]; Mouse liver microsomes): 3051 mL/min/gprot; Comments (metabolic stability) ([8]; Mouse liver microsomes): poor and did not achieve the desired result; half-life at 0.1 μM ([8]; pH 7.4, Mouse liver microsomes 0.33 mg/mL, 0.1 μM compound): 41.4 s; MIC (USA300 LAC [9]): > 256 µg/mL; MIC (USA400 MW2 [10]): > 256 µg/mL; MIC (HS663 [11]; HS663, compound alone): exceeds 256 μg/mL; MIC (HS663 [11]; Staphylococcus aureus): > 256 µg/mL; extension of survival time (MRSA HS663 strain; 16 mg/kg, higher infection dose, HS663 2.0 × 10^6 CFU): even higher than that of 20 mg/kg of imipenem treating group; survival rate of infected larvae, combination (MRSA HS663 strain; 18a 16 mg/kg in combination with 20 mg/kg imipenem, compared with imipenem alone, 2.0 × 10^6 CFU): a further improvement in the survival rate; survival time of infected larvae (MRSA HS663 strain; single administration 8 mg/kg): significantly extended the survival time; survival time of infected larvae (MRSA HS663 strain; single administration 16 mg/kg): significantly extended the survival time; concentration (as low as) alleviating the growth inhibition of Targocil ([12]; WT strain, 18a range 0.25–128 μg/mL): 0.25 µg/mL
CCN(CC)c1nc2c(S(=O)(=O)c3ccc(Cl)cc3)nnn2c2cc(OC)c(OC)cc12 [Targocil, reference compound] |  |  |  |  |  |  |  |  |  |  |  |  |  |  |  |  |  |  |  |  | lethal effect on the tarO mutant [13]: did not exhibit a lethal effect; MIC ([12]; Targocil alone, WT S.aureus): about 8 μg/mL
C[C@H]1[C@@H](c2cc(C(F)(F)F)cc(C(F)(F)F)c2)OC(=O)N1C(=O)Cc1cccc2ccccc12 [Tarocin A, reference compound] | 9.7 | <0.26 | 4 | <0.51 | 2 | 0.06 | 16 | <0.51 | 2 | 0.5 | 0.06 | 1 | 8 | <0.14 | 8 | <0.51 | 2 | 2 | 0.25 | 8 | induction of vraXpro-lux expression (TarO; MRSA USA300 LAC strain, exponential growth phase): concentration-dependent manner; bacterial growth density (OD600) (TarO; post-exponential growth phase): effectively reduced the bacterial growth density; water solubility [1]: almost insoluble in pure water; IC50 at 72 h ([2]; Capan-1 cells (human pancreatic cancer cell line), Capan-1, 72 h): > 20 µM; IC50 at 72 h ([2]; HCT-116 cells (human colon cancer cell line), HCT-116, 72 h): > 20 µM; IC50 at 72 h ([2]; NCI-H1373 cells (human lung adenocarcinoma cell line), NCI-H1373, 72 h): > 20 µM; FICI (USA400 MW2 [4]; [14]): <0.07; MIC of β-lactam, combined (HS663 [5]; [19]): 32 µg/mL; vraXpro-lux expression pattern and growth characteristics of the tarO mutant [6]: neither Tarocin A nor 18a further changed the vraXpro-lux expression pattern as well as the growth characteristics of the mutant; static biofilm formation ([7]; tested concentration range 0.03 to 32 μg/mL): did not reduce static biofilm formation; MIC (USA300 LAC [9]): > 256 µg/mL; MIC (USA400 MW2 [10]): > 256 µg/mL; MIC (HS663 [11]; Staphylococcus aureus): > 256 µg/mL
